Experimental data published in ChEMBL document CHEMBL4364276, “Discovery of 4-phenyl-2H-benzo[b][1,4]oxazin-3(4H)-one derivatives as potent and orally active PI3K/mTOR dual inhibitors” (Eur J Med Chem, 2019).

Tests used:
[1] = target: Phosphatidylinositol 4,5-bisphosphate 3-kinase catalytic subunit alpha isoform (Homo sapiens, UniProt P42336); test: Inhibition of recombinant human full length N-terminal GST-tagged PI3Kalpha (1 to 1068 residues)/PIK3R1 (1 to 724 residues) expressed in baculovirus expression system using PIP2 as substrate incubated for 1 hr by ADP-Glo assay
MCF7 = test: cells; settings: Homo sapiens, MCF7, 72 h
[2] = target: PI3-kinase p110-delta/p85-alpha (Homo sapiens, UniProt O00329); test: Inhibition of recombinant human full length N-terminal GST-tagged PI3Kdelta (1 to 1044 residues)/PIK3R1 (1 to 724 residues) expressed in baculovirus expression system using PIP2 as substrate incubated for 2 hrs by ADP-Glo assay
[3] = target: Serine/threonine-protein kinase mTOR (Homo sapiens, UniProt P42345); test: Inhibition of recombinant human N-terminal FLAG-tagged mTOR (1362 to end residues) using Ulight-4E-BP1 as substrate incubated for 30 mins by fluorescence assay
HepG2 = test: cells; settings: Homo sapiens, HepG2, 72 h
A549 = test: cells; settings: Homo sapiens, A549, 72 h
HeLa = test: Antiproliferative activity against human HeLa cells assessed as reduction in cell viability incubated for 72 hrs by MTT assay; format: functional, cell-based
A-375 = test: Antiproliferative activity against human A375 cells assessed as reduction in cell viability incubated for 72 hrs by MTT assay; format: functional, cell-based; settings: A-375, 72 h
HCT-116 = test: Antiproliferative activity against human HCT116 cells assessed as reduction in cell viability incubated for 72 hrs by MTT assay; format: functional, cell-based; settings: HCT-116, 72 h

Sequence of PI3-kinase p110-delta/p85-alpha (P27986 whole entry, the tested form may be a part): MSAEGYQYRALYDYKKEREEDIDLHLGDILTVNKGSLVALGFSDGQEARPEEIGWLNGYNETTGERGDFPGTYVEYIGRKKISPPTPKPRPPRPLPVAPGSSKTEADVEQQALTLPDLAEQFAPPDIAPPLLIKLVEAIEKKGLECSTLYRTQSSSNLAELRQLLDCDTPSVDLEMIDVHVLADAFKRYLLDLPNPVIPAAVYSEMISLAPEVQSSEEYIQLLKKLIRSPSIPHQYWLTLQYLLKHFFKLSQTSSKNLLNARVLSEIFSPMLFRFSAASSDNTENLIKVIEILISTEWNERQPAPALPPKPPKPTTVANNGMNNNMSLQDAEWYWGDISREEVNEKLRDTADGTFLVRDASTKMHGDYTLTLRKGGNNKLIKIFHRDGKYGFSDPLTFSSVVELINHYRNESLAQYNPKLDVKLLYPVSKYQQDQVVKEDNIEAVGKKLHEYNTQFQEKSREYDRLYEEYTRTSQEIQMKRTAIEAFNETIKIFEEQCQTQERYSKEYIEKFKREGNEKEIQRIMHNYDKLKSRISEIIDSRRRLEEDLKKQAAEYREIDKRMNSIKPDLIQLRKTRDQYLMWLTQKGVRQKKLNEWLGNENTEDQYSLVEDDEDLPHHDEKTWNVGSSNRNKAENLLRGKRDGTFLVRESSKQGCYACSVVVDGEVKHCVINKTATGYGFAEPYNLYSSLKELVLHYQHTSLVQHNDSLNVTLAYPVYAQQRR
Sequence of PI3-kinase p110-delta/p85-alpha (O00329 whole entry, the tested form may be a part): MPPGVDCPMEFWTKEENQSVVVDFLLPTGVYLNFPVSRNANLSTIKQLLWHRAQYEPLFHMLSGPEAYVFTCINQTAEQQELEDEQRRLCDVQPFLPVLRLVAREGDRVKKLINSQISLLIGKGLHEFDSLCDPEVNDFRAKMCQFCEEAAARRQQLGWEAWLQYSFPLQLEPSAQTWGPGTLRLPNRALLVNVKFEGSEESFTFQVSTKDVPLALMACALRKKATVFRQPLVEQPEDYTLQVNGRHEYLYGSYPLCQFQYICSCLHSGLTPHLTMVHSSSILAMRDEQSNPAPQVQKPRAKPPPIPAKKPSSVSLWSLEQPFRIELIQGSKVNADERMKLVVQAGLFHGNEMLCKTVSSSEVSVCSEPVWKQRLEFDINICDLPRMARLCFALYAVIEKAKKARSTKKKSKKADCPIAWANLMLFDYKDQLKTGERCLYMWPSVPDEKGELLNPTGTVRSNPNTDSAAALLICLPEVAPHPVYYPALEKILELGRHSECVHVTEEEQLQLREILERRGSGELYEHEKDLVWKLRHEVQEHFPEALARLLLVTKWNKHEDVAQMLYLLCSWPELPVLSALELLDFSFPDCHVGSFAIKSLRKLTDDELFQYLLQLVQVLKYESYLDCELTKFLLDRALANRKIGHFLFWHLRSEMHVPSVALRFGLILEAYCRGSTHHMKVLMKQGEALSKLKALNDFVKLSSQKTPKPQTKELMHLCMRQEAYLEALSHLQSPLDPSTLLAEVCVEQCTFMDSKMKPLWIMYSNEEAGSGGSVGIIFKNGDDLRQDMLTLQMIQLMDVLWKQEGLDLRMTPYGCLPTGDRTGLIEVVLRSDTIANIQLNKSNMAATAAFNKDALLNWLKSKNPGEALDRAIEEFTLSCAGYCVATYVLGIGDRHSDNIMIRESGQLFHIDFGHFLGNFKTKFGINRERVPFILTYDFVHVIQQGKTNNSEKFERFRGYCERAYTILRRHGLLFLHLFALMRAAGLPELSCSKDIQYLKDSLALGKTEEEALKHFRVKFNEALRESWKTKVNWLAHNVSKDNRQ
Sequence of Phosphatidylinositol 4,5-bisphosphate 3-kinase catalytic subunit alpha isoform (P42336 whole entry, looked up, the tested form may be a part, canonical isoform): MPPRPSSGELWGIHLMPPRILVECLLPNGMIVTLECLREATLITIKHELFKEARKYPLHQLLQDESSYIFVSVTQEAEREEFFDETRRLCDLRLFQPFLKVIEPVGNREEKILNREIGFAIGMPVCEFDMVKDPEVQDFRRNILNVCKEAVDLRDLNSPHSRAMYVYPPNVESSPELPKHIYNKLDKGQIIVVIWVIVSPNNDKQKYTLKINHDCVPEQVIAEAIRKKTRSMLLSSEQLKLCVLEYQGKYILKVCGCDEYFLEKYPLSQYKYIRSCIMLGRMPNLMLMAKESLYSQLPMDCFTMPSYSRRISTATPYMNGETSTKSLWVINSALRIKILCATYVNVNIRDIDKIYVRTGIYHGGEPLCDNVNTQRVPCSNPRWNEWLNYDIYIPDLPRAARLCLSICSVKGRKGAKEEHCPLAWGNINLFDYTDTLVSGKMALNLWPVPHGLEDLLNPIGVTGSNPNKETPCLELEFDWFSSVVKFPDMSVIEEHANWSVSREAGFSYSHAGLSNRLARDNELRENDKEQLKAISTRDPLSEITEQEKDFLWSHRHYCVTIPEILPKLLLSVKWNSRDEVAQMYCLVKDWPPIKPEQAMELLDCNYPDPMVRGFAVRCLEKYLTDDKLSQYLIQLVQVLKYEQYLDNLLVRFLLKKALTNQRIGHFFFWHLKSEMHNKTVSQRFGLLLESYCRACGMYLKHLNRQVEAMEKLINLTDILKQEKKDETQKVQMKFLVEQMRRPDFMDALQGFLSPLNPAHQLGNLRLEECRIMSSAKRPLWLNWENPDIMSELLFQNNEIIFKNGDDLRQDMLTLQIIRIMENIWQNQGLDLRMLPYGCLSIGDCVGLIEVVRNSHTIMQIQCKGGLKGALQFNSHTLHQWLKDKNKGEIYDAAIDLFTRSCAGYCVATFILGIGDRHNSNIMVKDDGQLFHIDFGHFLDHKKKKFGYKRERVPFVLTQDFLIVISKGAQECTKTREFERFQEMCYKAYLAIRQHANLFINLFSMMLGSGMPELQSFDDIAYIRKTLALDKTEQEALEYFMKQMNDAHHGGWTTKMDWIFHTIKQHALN

Compound | IC50 [1] [µM] | IC50 (MCF7) [µM] | IC50 [2] [µM] | IC50 [3] [µM] | IC50 (HepG2) [µM] | IC50 (A549) [µM] | IC50 (HeLa) [µM] | IC50 (A-375) [µM] | IC50 (HCT-116) [µM]
CC(C)N1C(=O)COc2ccc(-c3ccc(O)cc3)cc21 | > 1 | > 40 | > 1 | > 1 | > 40 | > 40 | > 40 | > 40 | > 40
COc1cccc(N2C(=O)COc3ccc(-c4cnc(OC)c(NS(=O)(=O)c5ccc(F)cc5)c4)cc32)c1 | > 1 | > 40 | > 1 | > 1 | > 40 | 11.2 | > 40 | > 40 | > 40
O=C1COc2ccc(-c3cnc(Cl)c(NS(=O)(=O)c4ccc(F)cc4)c3)cc2N1c1ccc(F)cc1 | 0.0051 | 32.6 | 0.005 | 0.0179 | > 40 | 22.3 | > 40 | > 40 | 34.2
COc1ncc(-c2ccc3c(c2)NC(=O)CO3)cc1NS(=O)(=O)c1ccc(F)cc1 | 0.5 | 32.3 | 0.3 | 0.635 | 6.59 | 8.07 | 7.11 | 26.3 | 24.9
COc1ncc(-c2ccc3c(c2)N(c2ccc(F)cc2)C(=O)CO3)cc1NS(=O)(=O)c1ccc(F)cc1 | 0.021 | > 40 | 0.019 | 0.0349 | 36.4 | 6.5 | 10.5 | > 40 | > 40
O=C1COc2ccc(-c3cnc(Cl)c(NS(=O)(=O)c4ccc(F)cc4)c3)cc2N1C1CCCCC1 | 0.112 | > 40 | 0.079 | 0.29 | > 40 | 37.9 | 14.3 | > 40 | > 40
O=C1COc2ccc(-c3cnc(Cl)c(NS(=O)(=O)c4ccc(F)cc4)c3)cc2N1c1ccccc1 | 0.019 | > 40 | 0.015 | 0.0153 | 35.7 | 14.7 | 10.3 | 36.9 | 39.8
CC(C)N1C(=O)COc2ccc(-c3cnc4ccccc4c3)cc21 | > 1 | 22.9 | > 1 | > 1 | > 40 | 24.6 | 23.1 | 39 | 23.2
O=C1COc2ccc(-c3ccc(O)cc3)cc2N1C1CC1 | > 1 | 33 | > 1 | > 1 | 32.7 | > 40 | > 40 | > 40 | > 40
COc1ccc(N2C(=O)COc3ccc(-c4ccc(O)cc4)cc32)cc1 | > 1 | 17.3 | > 1 | > 1 | 10.8 | > 40 | 16.4 | > 40 | 26.1
O=C1COc2ccc(-c3cnc4ccccc4c3)cc2N1 | > 1 | > 40 | > 1 | > 1 | 26.3 | > 40 | > 40 | > 40 | > 40
COc1ncc(-c2ccc3c(c2)N(C2CC2)C(=O)CO3)cc1NS(=O)(=O)c1ccc(F)cc1 | 0.131 | 35.2 | 0.162 | 0.253 | 14.4 | 3.32 | 6.03 | 23.9 | 24.3
COc1cccc(N2C(=O)COc3ccc(-c4ccc(O)cc4)cc32)c1 | > 1 | > 40 | > 1 | > 1 | 26.1 | > 40 | > 40 | 30.4 | 15.3
Cc1ccc(N2C(=O)COc3ccc(-c4cccc(NS(=O)(=O)c5ccc(F)cc5)c4)cc32)cc1 | > 1 | 32.1 | > 1 | > 1 | > 40 | > 40 | > 40 | 36.2 | 35.6
O=C1COc2ccc(-c3ccc(O)cc3)cc2N1c1ccccc1 | > 1 | 29 | > 1 | > 1 | > 40 | > 40 | > 40 | > 40 | > 40
O=C1COc2ccc(-c3cccc(NS(=O)(=O)c4ccc(F)cc4)c3)cc2N1C1CC1 | > 1 | > 40 | > 1 | > 1 | > 40 | > 40 | > 40 | > 40 | > 40
CC(C)N1C(=O)COc2ccc(-c3cccc(NS(=O)(=O)c4ccc(F)cc4)c3)cc21 | > 1 | 26 | > 1 | > 1 | > 40 | 29.4 | 22.7 | > 40 | 22.6
COc1cccc(N2C(=O)COc3ccc(-c4cccc(NS(=O)(=O)c5ccc(F)cc5)c4)cc32)c1 | > 1 | > 40 | > 1 | > 1 | > 40 | > 40 | > 40 | > 40 | > 40
COc1ccc(N2C(=O)COc3ccc(-c4cnc(Cl)c(NS(=O)(=O)c5ccc(F)cc5)c4)cc32)cc1 | 0.00043 | 36 | 0.0038 | 0.0198 | > 40 | 30.4 | 8.32 | 32.7 | 30.1
COc1ncc(-c2ccc3c(c2)N(c2ccc(C)cc2)C(=O)CO3)cc1NS(=O)(=O)c1ccc(F)cc1 | 0.012 | 15.4 | 0.017 | 0.0138 | 28.3 | 5.87 | 4.65 | 12.9 | 22.7
O=C1COc2ccc(-c3ccc(O)cc3)cc2N1 | > 1 | > 40 | > 1 | > 1 | 38.1 | > 40 | > 40 | > 40 | > 40
O=C1COc2ccc(-c3cnc4ccccc4c3)cc2N1c1ccc(F)cc1 | > 1 | > 40 | > 1 | > 1 | 37.2 | > 40 | 38.8 | > 40 | > 40
O=C1COc2ccc(-c3cccc(NS(=O)(=O)c4ccc(F)cc4)c3)cc2N1c1ccccc1 | > 1 | > 40 | > 1 | > 1 | 30.3 | > 40 | 17.7 | > 40 | > 40
O=C1COc2ccc(-c3cnc4ccccc4c3)cc2N1c1ccccc1 | > 1 | > 40 | > 1 | > 1 | > 40 | > 40 | > 40 | > 40 | > 40
O=C1COc2ccc(-c3cccc(NS(=O)(=O)c4ccc(F)cc4)c3)cc2N1C1CCCCC1 | > 1 | 21.4 | > 1 | > 1 | 35.9 | 14.5 | 10.8 | 23.8 | 18.3
O=C1COc2ccc(-c3cccc(NS(=O)(=O)c4ccc(F)cc4)c3)cc2N1c1ccc(Cl)cc1 | > 1 | 39.8 | > 1 | > 1 | 27.8 | 31.6 | 35 | 32.5 | 23.9
COc1cccc(N2C(=O)COc3ccc(-c4cnc5ccccc5c4)cc32)c1 | > 1 | > 40 | > 1 | > 1 | 2.08 | > 40 | 11.3 | 23.6 | 8.24
COc1ncc(-c2ccc3c(c2)N(C(C)C)C(=O)CO3)cc1NS(=O)(=O)c1ccc(F)cc1 | 0.0453 | 16.9 | 0.018 | 0.0036 | 37.2 | 4.92 | 2.79 | 9.95 | 19.2
Cc1ccc(N2C(=O)COc3ccc(-c4cnc(Cl)c(NS(=O)(=O)c5ccc(F)cc5)c4)cc32)cc1 | 0.0041 | 32.6 | 0.0037 | 0.0194 | 39.6 | 30.9 | 32.3 | 38.9 | 34.3
O=C1COc2ccc(-c3cnc4ccccc4c3)cc2N1C1CC1 | > 1 | 29.5 | > 1 | > 1 | > 40 | > 40 | > 40 | > 40 | > 40
